According to patent US20090192192A1, “INHIBITORS OF BIOFILM FORMATION OF GRAM-POSITIVE AND GRAM-NEGATIVE BACTERIA” (priority 2007, published 2009):

These compounds were tested on Pseudomonas aeruginosa PAO1 (assay: MBEC assay, biofilm formation of P. aeruginosa PAO1). Settings: compound concentration 100 μM, class symbols.
Assay type: cell-based
Protocol: The compound to be tested was dissolved in DMSO to obtain a concentration that was 100 times that of the final concentration required (1 mM for the 10 μM assay and 10 mM for the 100 μM assay). 1.5 μL of the above solution was placed into each well of a 96 well plate (final volume in each well=150 μL, final DMSO concentration of 1% (v/v)).
To grow the organism and form a biofilm, a cryogenic stock of the test organism (at −70° C.) was used. A first sub-culture was streaked out onto TSA (tryptic soy agar), upon which the plate was incubated at 35±2° C. for 24 hours and stored wrapped in parafilm at 4° C. afterwards. From this first sub-culture, a second sub-culture was streaked out onto TSA. The plate was incubated at 35±2° C. for 24 hours. The second sub-culture was used within 24 hours starting from the time it was first removed from incubation. Using the second sub-culture an inoculum in 3 mL sterile water that matches a 0.5 McFarland Standard (1.5×10^8 cells per mL) was created in a glass test tube using a sterile cotton swab. 2.2 mL of this solution was diluted in 22 mL 100% TSB (tryptic soy broth) medium to a cell density of approximately […]. The diluted organism was inverted 3-5 times to achieve uniform mixing of the organism. One sample (100 μl) of the diluted organism was used for an inoculum check by serially diluting and spot plating on TSA.
To prepare a challenge plate, […] of the diluted organism was added to each well of a 96 well plate except the sterility control wells. The test compounds were added to the wells to make up final concentrations of 10 μM and […] (1.5 μL/well) in the designated location in the test plate. 128.5 μL of 100% universal neutralizer (1% Tween 80 in Cation Adjusted Mueller Hinton Broth, CAMHB) was placed in each of the wells. 130 μL of media was added to the growth control wells. 128.5 μL of media+1.5 μL of DMSO were added to a second set of growth control wells. 150 μL of media was added to the sterility controls. Each sample was run in triplicate. The plate was covered by a lid with a peg per well and wrapped in parafilm and placed on a shaker in a humidified incubator (GeneVac) at 35±+2° C. for 24 hours set at 110 rpm.
Rinse plate(s) of 0.9% saline (200 μL per well) were prepared in a sterile 96 well microtitre plate. Lid-associated pegs were rinsed in 0.9% saline for approximately 1-2 minutes. The peg lid was transferred to the recovery media (1.0% Tween 80 in CAMHB) then sonicated for 30 minutes to dislodge surviving biofilm. Following sonication, 100 μL from each well of the 96 well plate was placed into the first 12 wells of the first row of a 96 well microtiter plate. 180 μl of 0.9% sterile saline was placed in the remaining rows. A serial dilution (10^0-10^7) was prepared by moving 20 μl down each of the 8 rows. 20 μl from each well was removed and spot plated on a prepared TSA. In the remaining recovery plate, 100 μl of fresh growth media (1.0% Tween 80 in CAMHB) was placed in each well to replace the amount removed. The recovery plate was covered with a regular lid and incubated at 35±2° C. for 24 hours and read visually to confirm antimicrobial activity of the test compounds.
The compounds of the present disclosure have been tested regarding their efficiency to inhibit biofilm formation of Staphylococcus aureus U of C#18 (MRSA), Staphylococcus aureus 456 (MRSA), Staphylococcus epidermidis RP62A, and Pseudomonas aeruginosa PAO1.
`CCCCCCCCCCNC(=O)Nc1cc(C2CC2)nn1C` [Example 66, 1-(3-cyclopropyl-1-methylpyrazol-5-yl)-3-decylurea] was tested, and the inhibition at 100 µM was > 50%.
`CCCCCCCCCCCC(=O)N1CCC(C(=O)N(CC)CC)C1` (stereo not drawn) [Example 148, 1-dodecanoyl-N,N-diethylpyrrolidine-3-carboxamide] was tested, and the inhibition at 100 µM was > 50%.
`CCCCCCCCCCNC(=O)Nc1cc(-c2ccccc2)nn1C` [Example 71, 1-decyl-3-(1-methyl-3-phenylpyrazol-5-yl)urea] was tested, and the inhibition at 100 µM was < 20%.
Compound `CCCCCCCCNC(=O)CC(=O)N1CCCC(C(=O)N(CC)CC)C1` (stereo not drawn) [Example 144, N,N-diethyl-1-(3-(octylamino)-3-oxopropanoyl)piperidine-3-carboxamide] has an inhibition at 100 µM of 20 to 50%.
`CCCCCCCCCCNC(=O)Nc1cccc(F)c1` [Example 51, 1-decyl-3-(3-fluorophenyl)urea] was tested, and the inhibition at 100 µM was < 20%.
In the case of `CCCCCCCCCCCCCCCCCCNC(=O)Nc1cc(C)nn1C` [Example 92, 1-(1,3-dimethylpyrazol-5-yl)-3-octadecylurea], the inhibition at 100 µM is reported as < 20%.
`CCCCCCCCCCCC(=O)N1CCCC(C(=O)NC)C1` (stereo not drawn) [Example 132, 1-dodecanoyl-N-methylpiperidine-3-carboxamide] was tested, and the inhibition at 100 µM was > 50%.
With `CCCCCCCCCOCC(=O)N(C)c1ccc(F)cc1` [Example 102, N-(4-fluorophenyl)-N-methyl-2-(nonyloxy)acetamide] the inhibition at 100 µM was 20 to 50%.
`CCCCCCCCCCCC(=O)N(C)c1cccc(F)c1` [Example 18, N-(3-fluorophenyl)-N-methyldodecanamide] was tested, and the inhibition at 100 µM was > 50%.
For `CCCCCCCCCCCC(=O)N[C@@H]1CCCC[C@H]1O` (relative stereo) [Example 35, trans-N-(2-hydroxycyclohexyl)dodecanamide], the inhibition at 100 µM was 20 to 50%.
`COCCOCCOCC(=O)Nc1ccc(F)cc1C(F)(F)F` [Example 126, N-(4-fluoro-2-(trifluoromethyl)phenyl)-2-(2-(2-methoxyethoxy)ethoxy)acetamide] was tested, and the inhibition at 100 µM was < 20%.
`CCCCCCCCCCCCNC(=O)Nc1cc(C(C)(C)C)nn1C` [Example 85, 1-(3-tert-butyl-1-methylpyrazol-5-yl)-3-dodecylurea] was tested, and the inhibition at 100 µM was > 50%.
`CCCCCCCCCCCCCCCCCCNC(=O)Nc1cc(C2CC2)nn1C` [Example 93, 1-(3-cyclopropyl-1-methyrpyrazol-5-yl)-3-octadecylurea] was tested, and the inhibition at 100 µM was < 20%.
Compound `CCCCCCCCCCNC(=O)Nc1cc(C)nn1C` [Example 63, 1-decyl-3-(1,3-dimethylpyrazol-5-yl)urea] has an inhibition at 100 µM of 20 to 50%.
For `CCCCCCCCCCNC(=O)Nc1nnc(-c2ccccc2)s1` [Example 77, 1-decyl-3-(5-phenyl-1,3,4-thiadiazol-2-yl)urea], the inhibition at 100 µM was < 20%.
`CCCCCCCCCOCC(=O)Nc1ccc(F)cc1C(F)(F)F` [Example 103, N-(4-fluoro-2-(trifluoromethyl)phenyl)-2-(nonyloxy)acetamide] was tested, and the inhibition at 100 µM was 20 to 50%.
With `CCCCCCCCCCCCCCNC(=O)Nc1cc(C(C)(C)C)nn1C` [Example 88, 1-(3-tert-butyl-1-methylpyrazol-5-yl)-3-tetradecylurea] the inhibition at 100 µM was > 50%.
For `CCCCCCCCCCCC(=O)N1CCCCC1CO` (stereo not drawn) [Example 37, 1-(2-(hydroxymethyl)piperidin-1-yl)dodecan-1-one], the inhibition at 100 µM was > 50%.
`CCCCCCNC(=O)Nc1cc(C2CC2)nn1C` [Example 42, 1-(3-cyclopropyl-1-methylpyrazol-5-yl)-3-hexylurea] showed an inhibition at 100 µM of 20 to 50%.
Compound `CCCCCCCCNC(=O)Nc1cc(C2CC2)nn1C` [Example 45, 1-(3-cyclopropyl-1-methylpyrazol-5-yl)-3-octylurea] has an inhibition at 100 µM of 20 to 50%.
`CCN(CC)C(=O)C1CCCN(C(=O)CCCCCCN(C)CCN(C)C)C1` (stereo not drawn) [Example 139, 1-(7-((2-(dimethylamino)ethyl)(methyl)amino)heptanoyl)-N,N-diethylpiperidine-3-carboxamide] was tested, and the inhibition at 100 µM was < 20%.
With `CCCCCCCCCCCC(=O)N1CCCC(C(=O)N2CCCC2)C1` (stereo not drawn) [Example 136, 1-(3-(pyrrolidine-1-carbonyl)piperidin-1-yl)dodecan-1-one] the inhibition at 100 µM was < 20%.
In the case of `CCCCCCCCOCCC(=O)Nc1nnc(-c2ccccc2)s1` [Example 118, 3-(octyloxy)-N-(5-phenyl-1,3,4-thiadiazol-2-yl)propanamide], the inhibition at 100 µM is reported as < 20%.
With `CCCCCCCCOCCC(=O)N[C@@H](C)c1ccccc1` [Example 113, (S)-3-(octyloxy)-N-(1-phenylethyl)propanamide] the inhibition at 100 µM was > 50%.
With `CCCCCCCCCCCC(=O)N[C@H]1CCOC1=O` [Example 33, N-dodecanoyl-L-homoserinelactone] the inhibition at 100 µM was < 20%.
`CCCCCCCCCCCC(=O)Nc1cc(C)nn1C(C)(C)C` [Example 30, N-(1-tert-butyl-3-methylpyrazol-5-yl)dodecanamide] was tested, and the inhibition at 100 µM was > 50%.
In the case of `CCCCNC(=O)Nc1cc(C)nn1C` [Example 38, 1-butyl-3-(1,3-dimethylpyrazol-5-yl)urea], the inhibition at 100 µM is reported as < 20%.
In the case of `CCCCCCCCCCCCCCCCNC(=O)Nc1cc(C2CC2)nn1C` [Example 90, 1-(3-cyclopropyl-1-methylpyrazol-5-yl)-3-hexadecylurea], the inhibition at 100 µM is reported as < 20%.
`CCCCCCCCCCNC(=O)Nc1ccccc1` [Example 48, 1-decyl-3-phenylurea] was tested, and the inhibition at 100 µM was < 20%.
In the case of `CCCCCCCCCCCC(=O)N1CCC(C(=O)NC)C1` (stereo not drawn) [Example 146, 1-dodecanoyl-N-methylpyrrolidine-3-carboxamide], the inhibition at 100 µM is reported as > 50%.
For `CCCCCCCCCCCC(=O)Nc1ccccc1C(=O)O` [Example 25, 2-dodecanamidobenzoic acid], the inhibition at 100 µM was > 50%.
`CCCCCCCCCCNC(=O)N(C)c1cc(-c2ccccc2)nn1C` [Example 72, 3-decyl-1-methyl-1-(1-methyl-3-phenylpyrazol-5-yl)urea] was tested, and the inhibition at 100 µM was 20 to 50%.
With `CCCCCCCCCC(=O)NC(=O)Nc1ccccc1C(F)(F)F` [Example 96, N-(2-(trifluoromethyl)phenylcarbamoyl)decanamide] the inhibition at 100 µM was < 20%.
`CCCCCCCCNC(=O)Nc1cc(C)nn1C` [Example 44, 1-(1,3-dimethylpyrazol-5-yl)-3-octylurea] was tested, and the inhibition at 100 µM was 20 to 50%.
In the case of `CCCCCCCCCCNC(=O)Nc1nnc(C(C)(C)C)s1` [Example 76, 1-(5-tert-butyl-1,3,4-thiadiazol-2-yl)-3-decylurea], the inhibition at 100 µM is reported as > 50%.
In the case of `CCCCCCCCCC(=O)N[C@@H]1CCCC[C@H]1O` (relative stereo) [Example 34, trans-N-(2-hydroxycyclohexyl)decanamide], the inhibition at 100 µM is reported as 20 to 50%.
For `CCCCOCCOCC(=O)N[C@@H](C)c1ccccc1` [Example 121, (S)-2-(2-butoxyethoxy)-N-(1-phenylethyl)acetamide], the inhibition at 100 µM was < 20%.
`CCCCCCCCCCNC(=O)Nc1ccc(F)cc1` [Example 53, 1-decyl-3-(4-fluorophenyl)urea] was tested, and the inhibition at 100 µM was < 20%.
In the case of `CCCCCCCCCOCC(=O)Nc1cc(C(C)(C)C)nn1C` [Example 107, N-(3-tert-butyl-1-methylpyrazol-5-yl)-2-(nonyloxy)acetamide], the inhibition at 100 µM is reported as > 50%.
In the case of `CCCCCCCCCCNC(=O)N(C)c1ccc(F)cc1F` [Example 56, 3-decyl-1-(2,4-difluorophenyl)-1-methylurea], the inhibition at 100 µM is reported as < 20%.
With `CCCCCCCCCCCCCCCCNC(=O)Nc1cc(C)nn1C` [Example 89, 1-(1,3-dimethylpyrazol-5-yl)-3-hexadecylurea] the inhibition at 100 µM was < 20%.
In the case of `CCCCCCCCCCNC(=O)N(C)[C@H](C)c1ccccc1` [Example 60, (R)-3-decyl-1-methyl-1-(1-phenylethyl)urea], the inhibition at 100 µM is reported as > 50%.
Work on `CCCCCCCCOCCC(=O)Nc1cc(C)nn1C` [Example 114, N-(1,3-dimethylpyrazol-5-yl)-3-(octyloxy)propanamide] yielded an inhibition at 100 µM of 20 to 50%.
`CCCCCCCCCC(=O)N[C@H]1CCC[C@H]1C(=O)O` (relative stereo) [Example 36, cis-2-decanamidocyclopentanecarboxylic acid] was tested, and the inhibition at 100 µM was < 20%.
For `CCCCCCCCCCNC(=O)N[C@@H](C)c1ccccc1` [Example 59, (S)-1-decyl-3-(1-phenylethyl)urea], the inhibition at 100 µM was < 20%.
